Reference: PubChem BioAssay (NCI)
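Interpolation was linear, between the two tested concentrations surrounding the appropriate level; five concentrations were tested over 48 hours in 96-well plates. TGI marks complete inhibition of growth.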

Assays:
Assay in all cases: DTP human tumour cell line panel, 48 h
[1] = tested on: 786-0 renal
[2] = tested on: A549 NSCLC
[3] = tested on: ACHN renal
[4] = tested on: CCRF-CEM leukemia
[5] = tested on: COLO 205 colon
[6] = tested on: HCT-116 colon
[7] = tested on: M14 melanoma
[8] = tested on: MDA-MB-231 breast
[9] = tested on: MOLT-4 leukemia
[10] = tested on: NCI-H522 lung
[11] = tested on: OVCAR-3 ovarian
[12] = tested on: OVCAR-4 ovarian
[13] = tested on: OVCAR-8 ovarian
[14] = tested on: RXF 393 renal
[15] = tested on: SN12C renal
[16] = tested on: T-47D breast
[17] = tested on: U251 CNS
[18] = tested on: UACC-257 melanoma
[19] = tested on: A498 renal
[20] = tested on: HOP-62 NSCLC

SMILES: Cc1cc2c(cc1C)C(=O)C1(C2)Cc2c(C)ccc(C)c2C1=O (configuration not stated)
- TGI [1]: > 100 µM
- TGI [2]: > 100 µM
- TGI [3]: > 100 µM
- TGI [4]: > 100 µM
- TGI [5]: > 100 µM
- TGI [6]: > 100 µM
- TGI [7]: > 100 µM
- TGI [8]: > 100 µM
- TGI [9]: > 100 µM
- TGI [10]: > 100 µM
- TGI [11]: > 100 µM
- TGI [12]: > 100 µM
- TGI [13]: > 100 µM
- TGI [14]: > 100 µM
- TGI [15]: > 100 µM
- TGI [16]: > 100 µM
- TGI [17]: > 100 µM
- TGI [18]: > 100 µM

SMILES: N#Cc1[nH]c(=S)[nH]c1N
- TGI [1]: > 100 µM
- TGI [19]: > 100 µM
- TGI [2]: > 100 µM
- TGI [3]: > 100 µM
- TGI [4]: > 100 µM
- TGI [5]: > 100 µM
- TGI [6]: > 100 µM
- TGI [20]: > 100 µM
- TGI [10]: > 100 µM
- TGI [11]: > 100 µM
- TGI [12]: > 100 µM
- TGI [13]: > 100 µM
- TGI [14]: > 100 µM
- TGI [15]: > 100 µM
- TGI [17]: > 100 µM
- TGI [18]: > 100 µM

SMILES: Cc1cn(C2CC(O)C(CO[Si](C)(C)C(C)(C)C)OC2OC(C)C)c(=O)[nH]c1=O (configuration not stated)
- TGI [1]: 31.6 µM
- TGI [2]: > 100 µM
- TGI [3]: > 100 µM
- TGI [4]: 61.1 µM
- TGI [5]: 48.9 µM
- TGI [6]: 31.3 µM
- TGI [7]: 92.5 µM
- TGI [8]: > 100 µM
- TGI [10]: 89 µM
- TGI [11]: 46.3 µM
- TGI [12]: > 100 µM
- TGI [13]: 91.8 µM
- TGI [14]: 88.7 µM
- TGI [15]: > 100 µM
- TGI [16]: > 100 µM
- TGI [17]: > 100 µM
- TGI [18]: > 100 µM

SMILES: COc1ccc(-n2cnn3c(=O)c4cn[nH]c4nc23)cc1
- TGI [1]: > 10 µM
- TGI [2]: > 10 µM
- TGI [3]: > 10 µM
- TGI [4]: > 10 µM
- TGI [6]: > 10 µM
- TGI [7]: > 10 µM
- TGI [9]: > 10 µM
- TGI [10]: > 10 µM
- TGI [11]: > 10 µM
- TGI [12]: > 10 µM
- TGI [13]: > 10 µM
- TGI [15]: > 10 µM
- TGI [17]: > 10 µM
- TGI [18]: > 10 µM

SMILES: CC(C)CC(NC(=O)C(CI)Cc1ccccc1)C(=O)Nc1ccccc1 (configuration not stated)
- TGI [1]: > 100 µM
- TGI [19]: > 100 µM
- TGI [2]: > 100 µM
- TGI [3]: > 100 µM
- TGI [4]: > 100 µM
- TGI [5]: > 100 µM
- TGI [6]: > 100 µM
- TGI [7]: > 100 µM
- TGI [8]: > 100 µM
- TGI [9]: > 100 µM
- TGI [10]: > 100 µM
- TGI [11]: > 100 µM
- TGI [12]: > 100 µM
- TGI [13]: > 100 µM
- TGI [14]: > 100 µM
- TGI [15]: > 100 µM
- TGI [17]: > 100 µM
- TGI [18]: > 100 µM

SMILES: C#CC(C)(C)OC(=O)C(=[N+]=[N-])C(C)=O
- TGI [1]: > 10 µM
- TGI [19]: > 10 µM
- TGI [2]: > 10 µM
- TGI [3]: > 10 µM
- TGI [4]: > 10 µM
- TGI [6]: > 10 µM
- TGI [20]: > 10 µM
- TGI [7]: > 10 µM
- TGI [8]: > 10 µM
- TGI [9]: > 10 µM
- TGI [11]: > 10 µM
- TGI [13]: > 10 µM
- TGI [14]: > 10 µM
- TGI [15]: > 10 µM
- TGI [16]: > 10 µM
- TGI [17]: > 10 µM
- TGI [18]: > 10 µM

SMILES: CC(O)CCCCC(O)CCC[C@H](O)[C@H]1CCC([C@H]2CCC([C@@H](O)CCCCCCCCCCCCC3=C[C@H](C)OC3=O)O2)O1 (some centres not stated)
- TGI [1]: 25.9 µM
- TGI [2]: 17.6 µM
- TGI [3]: 21.1 µM
- TGI [4]: 31.7 µM
- TGI [5]: 23.7 µM
- TGI [6]: 15.5 µM
- TGI [20]: 20.7 µM
- TGI [7]: 21.4 µM
- TGI [8]: 21.6 µM
- TGI [9]: 20.1 µM
- TGI [10]: 16.7 µM
- TGI [11]: 19.1 µM
- TGI [12]: 25.9 µM
- TGI [13]: 21.7 µM
- TGI [14]: 22.5 µM
- TGI [15]: 22.9 µM
- TGI [17]: 20.6 µM
- TGI [18]: 20.7 µM

SMILES: O=C(Oc1ccccc1)N1c2ccccc2[C@@]23O[C@]24CCC[C@H]3C#C/C=C\C#C[C@H]14
- TGI [1]: 22.2 µM
- TGI [19]: 27.6 µM
- TGI [2]: 25 µM
- TGI [4]: > 100 µM
- TGI [5]: 28 µM
- TGI [6]: 24.2 µM
- TGI [20]: 25.6 µM
- TGI [7]: 30.6 µM
- TGI [8]: 24.8 µM
- TGI [9]: > 100 µM
- TGI [11]: 26.1 µM
- TGI [12]: 23.3 µM
- TGI [13]: 24.8 µM
- TGI [14]: 21.8 µM
- TGI [15]: 26.6 µM
- TGI [16]: 22 µM
- TGI [17]: 30.3 µM
- TGI [18]: 28.7 µM

SMILES: CC1C[C@]2(C)C(=NCCN)Nc3ccccc3[C@@H]2N(C)c2ccccc21 (some centres not stated)
- TGI [1]: 24.6 µM
- TGI [19]: 30.5 µM
- TGI [2]: 31.6 µM
- TGI [3]: 29.9 µM
- TGI [4]: 35 µM
- TGI [5]: 5.14 µM
- TGI [6]: 21 µM
- TGI [20]: 30.6 µM
- TGI [7]: 3.56 µM
- TGI [8]: 21.1 µM
- TGI [9]: > 100 µM
- TGI [11]: 23.7 µM
- TGI [12]: 30.4 µM
- TGI [13]: 27.9 µM
- TGI [14]: 22.1 µM
- TGI [15]: 28.4 µM
- TGI [16]: 39.2 µM
- TGI [18]: 14.8 µM

SMILES: CCCCCC(=O)CCCCCCCC(O)CC(=O)OCC (configuration not stated)
- TGI [1]: > 100 µM
- TGI [19]: > 100 µM
- TGI [2]: > 100 µM
- TGI [3]: > 100 µM
- TGI [4]: > 100 µM
- TGI [6]: > 100 µM
- TGI [20]: > 100 µM
- TGI [7]: > 100 µM
- TGI [8]: > 100 µM
- TGI [9]: > 100 µM
- TGI [10]: > 100 µM
- TGI [11]: > 100 µM
- TGI [13]: > 100 µM
- TGI [15]: > 100 µM
- TGI [16]: > 100 µM
- TGI [17]: > 100 µM
- TGI [18]: > 100 µM

SMILES: CC(=O)O[C@H]1CCC2[C@@H]3CCC4Nc5oncc5C[C@]4(C)C3CC[C@@]21C (some centres not stated)
- TGI [1]: > 10 µM
- TGI [19]: > 10 µM
- TGI [2]: > 10 µM
- TGI [3]: > 10 µM
- TGI [4]: > 10 µM
- TGI [5]: > 10 µM
- TGI [6]: > 10 µM
- TGI [20]: > 10 µM
- TGI [7]: > 10 µM
- TGI [8]: > 10 µM
- TGI [9]: > 10 µM
- TGI [11]: > 10 µM
- TGI [12]: > 10 µM
- TGI [13]: > 10 µM
- TGI [14]: > 10 µM
- TGI [15]: > 10 µM
- TGI [16]: > 10 µM
- TGI [17]: > 10 µM
- TGI [18]: > 10 µM

SMILES: COc1ccc2[nH]c3c(c2c1)CC(=S)N1CCCC(CC3=O)C1 (configuration not stated)
- TGI [1]: > 100 µM
- TGI [19]: > 100 µM
- TGI [2]: > 100 µM
- TGI [3]: > 100 µM
- TGI [4]: > 100 µM
- TGI [5]: > 100 µM
- TGI [6]: > 100 µM
- TGI [20]: > 100 µM
- TGI [7]: > 100 µM
- TGI [8]: > 100 µM
- TGI [11]: > 100 µM
- TGI [12]: > 100 µM
- TGI [13]: > 100 µM
- TGI [14]: 81 µM
- TGI [15]: > 100 µM
- TGI [16]: > 100 µM
- TGI [17]: > 100 µM
- TGI [18]: > 100 µM

SMILES: COc1ccc(NC(=O)N(C)CC2(O)CCC(C(C)(C)C)CC2)cc1 (configuration not stated)
- TGI [1]: > 100 µM
- TGI [19]: > 100 µM
- TGI [2]: > 100 µM
- TGI [3]: > 100 µM
- TGI [4]: > 100 µM
- TGI [5]: > 100 µM
- TGI [6]: > 100 µM
- TGI [20]: > 100 µM
- TGI [7]: > 100 µM
- TGI [8]: > 100 µM
- TGI [9]: > 100 µM
- TGI [10]: > 100 µM
- TGI [11]: 81.4 µM
- TGI [12]: > 100 µM
- TGI [13]: > 100 µM
- TGI [14]: 92.9 µM
- TGI [15]: > 100 µM
- TGI [17]: > 100 µM
- TGI [18]: > 100 µM
